Experimental data published in PubChem BioAssay (NCI).
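Cells were grown in 96-well plates and exposed to each compound for 48 hours at five concentrations; endpoints were interpolated linearly between bracketing concentrations, or set to the highest concentration if not reached. GI50 = concentration required for 50% inhibition of growth. The concentration for full growth arrest is given as TGI.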

Assays:
Test in all cases: growth of human tumour cells (NCI), 48 h
ACHN renal = system: ACHN renal
COLO 205 colon = system: COLO 205 colon
LOX IMVI melanoma = system: LOX IMVI melanoma
M14 melanoma = system: M14 melanoma
OVCAR-5 ovarian = system: OVCAR-5 ovarian
RPMI-8226 leukemia = system: RPMI-8226 leukemia
SF-539 CNS = system: SF-539 CNS
UACC-62 melanoma = system: UACC-62 melanoma
RXF 393 renal = system: RXF 393 renal
SR leukemia = system: SR leukemia

| Compound | TGI (ACHN renal) | TGI (COLO 205 colon) | TGI (LOX IMVI melanoma) | TGI (M14 melanoma) | TGI (OVCAR-5 ovarian) | TGI (RPMI-8226 leukemia) | TGI (SF-539 CNS) | TGI (UACC-62 melanoma) | TGI (RXF 393 renal) | TGI (SR leukemia) | GI50 (OVCAR-5 ovarian) | GI50 (ACHN renal) | GI50 (RPMI-8226 leukemia) | GI50 (RXF 393 renal) | GI50 (SF-539 CNS) | GI50 (UACC-62 melanoma) |
| --- | --- | --- | --- | --- | --- | --- | --- | --- | --- | --- | --- | --- | --- | --- | --- | --- |
| CN(Cc1ccccc1)c1cc(=O)n(C)c(=O)[nH]1 | > 100 µM | > 100 µM | > 100 µM | > 100 µM | > 100 µM | > 100 µM | > 100 µM | > 100 µM | – | – | – | – | – | – | – | – |
| CC(=O)Oc1cc(C(F)(F)F)ccc1C(=O)OC1(C)OC(=O)c2ccc(C(F)(F)F)cc2O1 (stereo unspecified) | > 100 µM | > 100 µM | > 100 µM | > 100 µM | > 100 µM | – | > 100 µM | > 100 µM | > 100 µM | – | – | – | – | – | – | – |
| O=C(O)C(SC1=NNC2(C(=O)N1)c1ccccc1-c1ccccc12)SC1=NNC2(C(=O)N1)c1ccccc1-c1ccccc12 | > 10 µM | > 10 µM | > 10 µM | > 10 µM | > 10 µM | > 10 µM | > 10 µM | > 10 µM | > 10 µM | – | – | – | – | – | – | – |
| Nc1nc(Cl)cc(NCC2(CO)CCC(CCc3ccccc3)C2)n1 (stereo unspecified) | 29.9 µM | 27.3 µM | 26.3 µM | 27.8 µM | 33.1 µM | – | 33.4 µM | 28.3 µM | 29.9 µM | – | – | – | – | – | – | – |
| Oc1[nH]c2ccc(Br)cc2c1N=NC(=S)Nc1ccc(F)cc1 | 18 µM | 22.4 µM | 27.1 µM | – | > 100 µM | – | 38.8 µM | 13.8 µM | 13.2 µM | 12.2 µM | – | – | – | – | – | – |
| CC[n+]1[b-](C(C)(C)C)n(/N=C/C(C)(C)C)[b-](C(C)(C)C)[n+]1CC | > 100 µM | > 100 µM | > 100 µM | > 100 µM | > 100 µM | – | > 100 µM | > 100 µM | > 100 µM | > 100 µM | – | – | – | – | – | – |
| O=C(CNc1c(Cl)cccc1Cl)NC1C=Cc2ccc(S(=O)(=O)Nc3c(Cl)cccc3Cl)cc2C1=O (stereo unspecified) | > 100 µM | > 100 µM | > 100 µM | > 100 µM | > 100 µM | > 100 µM | > 100 µM | > 100 µM | – | > 100 µM | – | – | – | – | – | – |
| c1ccc2c(c1)c1c(n2CCOCCN2CCOCC2)CCCC1 | > 100 µM | – | 63.6 µM | 30.9 µM | > 100 µM | 53.9 µM | > 100 µM | – | – | > 100 µM | – | – | – | – | – | – |
| Cc1ccc(OCCn2cc(Nc3ccccc3)c(=O)n(CCOc3ccc(C)cc3)c2=O)cc1 | > 100 µM | > 100 µM | > 100 µM | > 100 µM | > 100 µM | > 100 µM | > 100 µM | > 100 µM | > 100 µM | – | – | – | – | – | – | – |
| CC(=O)OCC1OC(n2cc(I)c(=O)[nH]c2=O)C(OC(C)=O)C(OC(C)=O)C1OC(C)=O (stereo unspecified) | > 100 µM | > 100 µM | > 100 µM | > 100 µM | > 100 µM | > 100 µM | – | > 100 µM | > 100 µM | > 100 µM | – | – | – | – | – | – |
| Clc1ccc(CSCCc2ccncc2)cc1Cl | 66 µM | 27.2 µM | – | 32.5 µM | 66.8 µM | 40.3 µM | 31.5 µM | 29.6 µM | 61.8 µM | – | – | – | – | – | – | – |
| Nc1ccc(-c2nc3ccccc3s2)cc1C(F)(F)F | 28.5 µM | 36.7 µM | 32.4 µM | 28.7 µM | 32.2 µM | 44.6 µM | 37.7 µM | 30.6 µM | 21.9 µM | – | 17.5 µM | – | – | – | – | – |
| CC(C(=O)N1C(=O)N(C(=O)C(C)C(O)c2ccccc2)C2CCCCC21)C(O)c1ccccc1 (stereo unspecified) | > 100 µM | > 100 µM | > 100 µM | > 100 µM | > 100 µM | > 100 µM | – | > 100 µM | > 100 µM | > 100 µM | – | – | – | – | – | – |
| N=C(N)c1ccc(-c2ccc(-c3cccs3)s2)cc1 | 3.14 µM | – | – | – | 2.68 µM | 2.12 µM | 3.09 µM | 3.18 µM | 35.5 µM | – | 1.17 µM | 1.7 µM | 0.267 µM | 13.9 µM | 1.65 µM | 1.68 µM |
| O=c1ccn(C2OC(CO)C(P(=O)(O)O)C2O)c(=O)[nH]1 (stereo unspecified) | > 100 µM | – | > 100 µM | > 100 µM | > 100 µM | > 100 µM | > 100 µM | > 100 µM | > 100 µM | > 100 µM | – | – | – | – | – | – |
| CCN1CCCC(NCc2c3ccccc3c(CNC3CCCN(CC)C3)c3ccccc23)C1 (stereo unspecified) | – | 12.7 µM | 22.3 µM | – | 19.8 µM | 54.3 µM | 35.7 µM | 26.8 µM | 11.8 µM | – | – | – | – | – | – | – |
| CC(C)=CCC/C(C)=C/COC(C)(C)C1=CCC(C)CC1 (stereo unspecified) (tested in a mixture with another compound) | > 100 µM | > 100 µM | – | > 100 µM | > 100 µM | > 100 µM | 29.3 µM | > 100 µM | > 100 µM | 36.1 µM | – | – | – | – | – | – |
| Cn1ccnc1C(O)(c1nccn1C)c1nccn1C | > 100 µM | > 100 µM | > 100 µM | > 100 µM | > 100 µM | – | – | – | > 100 µM | > 100 µM | – | – | – | – | – | – |
| COC(=O)c1c2c(cc3c1CCC3)CCC2 | > 100 µM | > 100 µM | > 100 µM | > 100 µM | > 100 µM | 52.4 µM | > 100 µM | > 100 µM | – | 44.8 µM | – | – | – | – | – | – |
| Nc1nc(N)c(N=O)c(Nc2ccc(Br)cc2)n1 | 49.3 µM | 38.8 µM | 66.5 µM | 52.8 µM | > 100 µM | – | 56.5 µM | 19.4 µM | – | > 100 µM | – | – | – | – | – | – |
| O=c1[nH]cnc2c1ncn2[C@@H]1C[C@@H]1CO | > 100 µM | > 100 µM | > 100 µM | > 100 µM | > 100 µM | – | > 100 µM | > 100 µM | > 100 µM | > 100 µM | – | – | – | – | – | – |
| CC(=O)O[C@H]1C(=O)[C@@]2(C)[C@H]([C@H](OC(=O)c3ccc(F)cc3)[C@]3(O)C[C@H](OC(=O)[C@H](O)[C@@H](NC(=O)c4ccccc4)c4ccccc4)C(C)=C1C3(C)C)[C@]1(OC(C)=O)CO[C@@H]1C[C@@H]2O | > 25 µM | > 25 µM | 5.56 µM | – | > 11.5 µM | 0.0195 µM | 0.0604 µM | > 25 µM | 0.902 µM | – | – | – | – | – | – | – |
| O=C(NC(COC(=O)C(Cc1ccccc1)NC(=O)c1ccccc1)Cc1ccccc1)c1ccccc1 (stereo unspecified) | > 50 µM | – | – | > 50 µM | > 50 µM | > 50 µM | > 50 µM | > 50 µM | – | > 50 µM | – | – | – | – | – | – |
